The source of these data is article PMC5218480 (PLoS ONE, 2017).

For this experiment, the system named is MV-4-11 cells. The experiment is described as follows: Gene expression microarray analysis (Affymetrix PrimeView) and GSEA. The class given is cell-based, human. More on the design: RFU PODN (11730768_x_at) / Fold change /veh PODN (11730768_x_at) / RFU LINC00158 (11744669_a_at) / Fold change /veh LINC00158 (11744669_a_at) / RFU DUSP10 (11751237_a_at) / Fold change /veh DUSP10 (11751237_a_at) / RFU ID3 (11757404_x_at) / Fold change /veh ID3 (11757404_x_at) / RFU PLEKHG5 (11737974_s_at) / Fold change /veh PLEKHG5 (11737974_s_at) / RFU LRRC4B (11730491_at) / Fold change /veh LRRC4B (11730491_at) / RFU GIMAP4 (11747438_a_at) / Fold change /veh GIMAP4 (11747438_a_at) / RFU KRT8 (11758183_x_at) / Fold change /veh KRT8 (11758183_x_at) / RFU CNN1 (11734310_a_at) / Fold change /veh CNN1 (11734310_a_at) / RFU VPS37D (11726825_at) / Fold change /veh VPS37D (11726825_at) / RFU C10orf10 (11716522_x_at) / Fold change /veh C10orf10 (11716522_x_at) / RFU KIR2DL2 /// KIR2DL4 /// KIR2DL5A /// KIR2DL5B /// KIR2DS1 /// KIR2DS2 /// KIR2DS3 /// KIR2DS4 /// KIR3DL3 /// KIR3DL3 /// KIR3DS1 (11738374_at) / Fold change /veh KIR2DL2 /// KIR2DL4 /// KIR2DL5A /// KIR2DL5B /// KIR2DS1 /// KIR2DS2 /// KIR2DS3 /// KIR2DS4 /// KIR3DL3 /// KIR3DL3 /// KIR3DS1 (11738374_at) / RFU C1QL1 (11718748_at) / Fold change /veh C1QL1 (11718748_at) / RFU TMPRSS4 (11747572_a_at) / Fold change /veh TMPRSS4 (11747572_a_at) / RFU HAMP (11756126_x_at) / Fold change /veh HAMP (11756126_x_at) / RFU RNFT2 (11725882_a_at) / Fold change /veh RNFT2 (11725882_a_at) / RFU NR4A2 (11747474_a_at) / Fold change /veh NR4A2 (11747474_a_at) / RFU ABCC12 (11746883_a_at) / Fold change /veh ABCC12 (11746883_a_at) / RFU TMEM136 (11760407_x_at) / Fold change /veh TMEM136 (11760407_x_at) / RFU CLDN22 /// WWC2 (11732394_at) / Fold change /veh CLDN22 /// WWC2 (11732394_at) / RFU HLA-DPB1 (11760878_x_at) / Fold change /veh HLA-DPB1 (11760878_x_at) / RFU SPINT1 (11716480_a_at) / Fold change /veh SPINT1 (11716480_a_at) / RFU GAP43 (11754022_s_at) / Fold change /veh GAP43 (11754022_s_at) / RFU A4GNT (11735810_at) / Fold change /veh A4GNT (11735810_at) / RFU PRB3 (11715151_x_at) / Fold change /veh PRB3 (11715151_x_at) / RFU TUBB4B (11761932_at) / Fold change /veh TUBB4B (11761932_at) / RFU CAPN14 (11732068_a_at) / Fold change /veh CAPN14 (11732068_a_at) / RFU TMCC2 (11721928_a_at) / Fold change /veh TMCC2 (11721928_a_at) / RFU IRGQ (11745062_a_at) / Fold change /veh IRGQ (11745062_a_at) / RFU FAM174B (11720279_a_at) / Fold change /veh FAM174B (11720279_a_at) / RFU TMPRSS4 (11748680_a_at) / Fold change /veh TMPRSS4 (11748680_a_at) / RFU FAM212B (11763350_a_at) / Fold change /veh FAM212B (11763350_a_at) / RFU PLEKHG5 (11743358_a_at) / Fold change /veh PLEKHG5 (11743358_a_at) / RFU ZSCAN30 (11745921_a_at) / Fold change /veh ZSCAN30 (11745921_a_at) / RFU CMKLR1 (11741424_a_at) / Fold change /veh CMKLR1 (11741424_a_at) / RFU LOC101060620 /// MAPK8IP1 (11723275_at) / Fold change /veh LOC101060620 /// MAPK8IP1 (11723275_at) / RFU SPTSSB (11747773_x_at) / Fold change /veh SPTSSB (11747773_x_at) / RFU PRSS12 (11739890_at) / Fold change /veh PRSS12 (11739890_at) / RFU BIN1 (11741810_x_at) / Fold change /veh BIN1 (11741810_x_at) / RFU WNT11 (11732464_a_at) / Fold change /veh WNT11 (11732464_a_at) / RFU C10orf10 (11716521_a_at) / Fold change /veh C10orf10 (11716521_a_at) / RFU C5orf56 (11738089_at) / Fold change /veh C5orf56 (11738089_at) / RFU CYB561 (11721691_x_at) / Fold change /veh CYB561 (11721691_x_at) / RFU ANKRD19P (11752326_a_at) / Fold change /veh ANKRD19P (11752326_a_at) / RFU OR2T12 /// OR2T33 /// OR2T8 (11738714_s_at) / Fold change /veh OR2T12 /// OR2T33 /// OR2T8 (11738714_s_at) / RFU VCAN (11748164_a_at) / Fold change /veh VCAN (11748164_a_at) / RFU JSRP1 (11732532_at) / Fold change /veh JSRP1 (11732532_at) / RFU KRTAP10-11 (11738290_x_at) / Fold change /veh KRTAP10-11 (11738290_x_at) / RFU MYO3A (11730013_a_at) / Fold change /veh MYO3A (11730013_a_at) / RFU EBF3 (11725865_a_at) / Fold change /veh EBF3 (11725865_a_at) / RFU CAMK2N1 (11719241_x_at) / Fold change /veh CAMK2N1 (11719241_x_at) / RFU C5orf56 (11738088_a_at) / Fold change /veh C5orf56 (11738088_a_at) / RFU OLFML3 (11715873_a_at) / Fold change /veh OLFML3 (11715873_a_at) / RFU LOC100653217 /// NTM (11731650_a_at) / Fold change /veh LOC100653217 /// NTM (11731650_a_at) / RFU MAPK11 (11762145_a_at) / Fold change /veh MAPK11 (11762145_a_at) / RFU FIZ1 (11724087_x_at) / Fold change /veh FIZ1 (11724087_x_at) / RFU OASL (11726364_x_at) / Fold change /veh OASL (11726364_x_at) / RFU SOX15 (11748057_x_at) / Fold change /veh SOX15 (11748057_x_at) / RFU CD79A (11719716_a_at) / Fold change /veh CD79A (11719716_a_at) / RFU HIST1H1D (11736915_at) / Fold change /veh HIST1H1D (11736915_at) / RFU CASKIN2 (11723855_a_at) / Fold change /veh CASKIN2 (11723855_a_at) / RFU LOC730098 (11760151_x_at) / Fold change /veh LOC730098 (11760151_x_at) / RFU OR4N2 (11742367_at) / Fold change /veh OR4N2 (11742367_at) / RFU PRRT2 (11749266_a_at) / Fold change /veh PRRT2 (11749266_a_at) / RFU SNX32 (11753110_a_at) / Fold change /veh SNX32 (11753110_a_at) / RFU CDHR5 (11726645_a_at) / Fold change /veh CDHR5 (11726645_a_at) / RFU RCAN1 (11760418_a_at) / Fold change /veh RCAN1 (11760418_a_at) / RFU FAM167A (11723789_a_at) / Fold change /veh FAM167A (11723789_a_at) / RFU FAM26E (11764081_at) / Fold change /veh FAM26E (11764081_at) / RFU ISYNA1 (11749810_s_at) / Fold change /veh ISYNA1 (11749810_s_at) / RFU ACY1 (11761880_at) / Fold change /veh ACY1 (11761880_at) / RFU 11764098_at / Fold change /veh 11764098_at / RFU SAMD14 (11745864_x_at) / Fold change /veh SAMD14 (11745864_x_at) / RFU NPB (11741838_a_at) / Fold change /veh NPB (11741838_a_at) / RFU TMPRSS6 (11731388_a_at) / Fold change /veh TMPRSS6 (11731388_a_at) / RFU KRTAP10-2 (11738614_at) / Fold change /veh KRTAP10-2 (11738614_at) / RFU ARHGAP8 /// PRR5-ARHGAP8 (11727945_x_at) / Fold change /veh ARHGAP8 /// PRR5-ARHGAP8 (11727945_x_at) / RFU KRTAP5-7 /// NADSYN1 (11734609_at) / Fold change /veh KRTAP5-7 /// NADSYN1 (11734609_at) / RFU RASL12 (11751679_a_at) / Fold change /veh RASL12 (11751679_a_at) / RFU CDKN2B (11736163_a_at) / Fold change /veh CDKN2B (11736163_a_at) / RFU PRF1 (11729649_at) / Fold change /veh PRF1 (11729649_at) / RFU, ZNF638 /// ZNF638-IT1 / Fold change vs veh, ZNF638 /// ZNF638-IT1 / RFU, PANK3 / Fold change vs veh, PANK3 / RFU, SH3YL1 / Fold change vs veh, SH3YL1 / RFU, ZEB2 / Fold change vs veh, ZEB2 / RFU, NRIP1 / Fold change vs veh, NRIP1 / RFU, PTTG1IP / Fold change vs veh, PTTG1IP / RFU, CAPN2 / Fold change vs veh, CAPN2 / RFU, MED14 / Fold change vs veh, MED14 / RFU, SNORA58 / Fold change vs veh, SNORA58 / RFU, C1orf63 / Fold change vs veh, C1orf63 / RFU, LRRFIP1 / Fold change vs veh, LRRFIP1 / RFU, NDUFAF7 / Fold change vs veh, NDUFAF7 / RFU, SLC12A2 / Fold change vs veh, SLC12A2 / RFU, IBTK / Fold change vs veh, IBTK / RFU, ESF1 / Fold change vs veh, ESF1 / Fold change vs veh, TMEM50B / RFU, TAOK1 / Fold change vs veh, TAOK1 / RFU, ACBD3 / Fold change vs veh, ACBD3 / RFU, TMA16 / Fold change vs veh, TMA16 / RFU, RWDD3 / Fold change vs veh, RWDD3 / RFU, BCAT1 / Fold change vs veh, BCAT1 / RFU, EDEM3 / Fold change vs veh, EDEM3 / RFU, TMEM33 / Fold change vs veh, TMEM33 / RFU, WDR75 / Fold change vs veh, WDR75 / RFU, AHCTF1 / Fold change vs veh, AHCTF1 / RFU, TFRC / Fold change vs veh, TFRC / RFU, ZDHHC17 / Fold change vs veh, ZDHHC17 / RFU, NOM1 / Fold change vs veh, NOM1 / RFU, ARL8B / Fold change vs veh, ARL8B / RFU, ZBTB11 / Fold change vs veh, ZBTB11 / RFU, TAMM41 / Fold change vs veh, TAMM41 / RFU, KIAA1704 /// LOC100996395 / Fold change vs veh, KIAA1704 /// LOC100996395 / RFU, ING1 / Fold change vs veh, ING1 / RFU, TRMT61B / Fold change vs veh, TRMT61B / RFU, FUBP3 / Fold change vs veh, FUBP3 / RFU, TP53 / Fold change vs veh, TP53 / RFU, TNKS2 / Fold change vs veh, TNKS2 / RFU, ZFP14 / Fold change vs veh, ZFP14 / RFU, ACTR2 / Fold change vs veh, ACTR2 / RFU, PPP3R1 / Fold change vs veh, PPP3R1 / RFU, PIK3R1 / Fold change vs veh, PIK3R1 / RFU, HNRNPA1 / Fold change vs veh, HNRNPA1 / RFU, RNF170 / Fold change vs veh, RNF170 / RFU, ZNF28 / Fold change vs veh, ZNF28 / RFU, RNGTT / Fold change vs veh, RNGTT / RFU, OGT / Fold change vs veh, OGT / RFU, BRD1 / Fold change vs veh, BRD1 / RFU, MARS / Fold change vs veh, MARS / RFU, ZNF655 / Fold change vs veh, ZNF655 / RFU, FAHD1 / Fold change vs veh, FAHD1 / RFU, BDP1 / Fold change vs veh, BDP1 / RFU, LRRCC1 / Fold change vs veh, LRRCC1 / RFU, ARID1A / Fold change vs veh, ARID1A / RFU, ZNF146 / Fold change vs veh, ZNF146 / RFU, ZNF330 / Fold change vs veh, ZNF330 / RFU, GPN3 / Fold change vs veh, GPN3 / RFU, C9orf123 / Fold change vs veh, C9orf123 / RFU, N4BP2L2 / Fold change vs veh, N4BP2L2 / RFU, ARFIP1 / Fold change vs veh, ARFIP1 / RFU, FAM179B / Fold change vs veh, FAM179B / RFU, BCL10 / Fold change vs veh, BCL10 / RFU, UHRF1BP1L / Fold change vs veh, UHRF1BP1L / RFU, BET1 / Fold change vs veh, BET1 / RFU, CNOT2 / Fold change vs veh, CNOT2 / RFU, ZNF268 / Fold change vs veh, ZNF268 / Fold change vs veh, ZNF507 / RFU, DGCR2 / Fold change vs veh, DGCR2 / RFU, WDSUB1 / Fold change vs veh, WDSUB1 / Fold change vs veh, HSP90B1 /// MIR3652 / RFU, ADSS / Fold change vs veh, ADSS / RFU, GK / Fold change vs veh, GK / RFU, ZNF148 / Fold change vs veh, ZNF148 / RFU, TAF9 / Fold change vs veh, TAF9 / RFU, SLC1A5 / Fold change vs veh, SLC1A5 / RFU, SLMO2 / Fold change vs veh, SLMO2 / RFU, ABCC4 / Fold change vs veh, ABCC4 / RFU, LOC101060439 /// RAP1B / Fold change vs veh, LOC101060439 /// RAP1B / RFU, RFX7 / Fold change vs veh, RFX7 / RFU, GTPBP10 / Fold change vs veh, GTPBP10 / RFU, CNEP1R1 / Fold change vs veh, CNEP1R1 / RFU, BIVM-ERCC5 /// ERCC5 / Fold change vs veh, BIVM-ERCC5 /// ERCC5 / RFU, ILF3 / Fold change vs veh, ILF3 / RFU 11762660_at / Fold change /veh 11762660_at / RFU VCAN (11757783_s_at) / Fold change /veh VCAN (11757783_s_at) / RFU DDX43 (11728927_at) / Fold change /veh DDX43 (11728927_at) / RFU KRT8 (11758188_x_at) / Fold change /veh KRT8 (11758188_x_at) / RFU NKD1 (11759106_at) / Fold change /veh NKD1 (11759106_at) / RFU SRD5A1 (11742802_a_at) / Fold change /veh SRD5A1 (11742802_a_at) / RFU TPSAB1 /// TPSB2 (11721975_s_at) / Fold change /veh TPSAB1 /// TPSB2 (11721975_s_at) / RFU GSTM3 (11746129_a_at) / Fold change /veh GSTM3 (11746129_a_at) / RFU IL23R (11737362_x_at) / Fold change /veh IL23R (11737362_x_at) / RFU TMEM51 (11727254_a_at) / Fold change /veh TMEM51 (11727254_a_at) / RFU PIWIL2 (11732686_x_at) / Fold change /veh PIWIL2 (11732686_x_at) / RFU ORM1 (11744905_x_at) / Fold change /veh ORM1 (11744905_x_at) / RFU CCDC152 (11743942_at) / Fold change /veh CCDC152 (11743942_at) / RFU ECM1 (11717891_a_at) / Fold change /veh ECM1 (11717891_a_at) / RFU IL23R (11748794_a_at) / Fold change /veh IL23R (11748794_a_at) / RFU TNFAIP8L3 (11732012_x_at) / Fold change /veh TNFAIP8L3 (11732012_x_at) / RFU MBOAT4 (11741988_at) / Fold change /veh MBOAT4 (11741988_at) / RFU 11764193_at / Fold change /veh 11764193_at / RFU TMEM53 (11763286_at) / Fold change /veh TMEM53 (11763286_at) / RFU MAGEB2 (11727129_at) / Fold change /veh MAGEB2 (11727129_at) / RFU TMEM200A (11744735_a_at) / Fold change /veh TMEM200A (11744735_a_at) / RFU CCDC152 (11751479_a_at) / Fold change /veh CCDC152 (11751479_a_at) / RFU FAM211A (11726209_a_at) / Fold change /veh FAM211A (11726209_a_at) / RFU RGS16 (11746705_a_at) / Fold change /veh RGS16 (11746705_a_at) / RFU VCAN (11755009_s_at) / Fold change /veh VCAN (11755009_s_at) / RFU RHOB (11743442_s_at) / Fold change /veh RHOB (11743442_s_at) / RFU RGS16 (11720943_a_at) / Fold change /veh RGS16 (11720943_a_at) / RFU RGS16 (11720944_at) / Fold change /veh RGS16 (11720944_at) / RFU, VPS4B / Fold change vs veh, VPS4B / RFU, CREB1 / Fold change vs veh, CREB1 / RFU, DNAJC13 / Fold change vs veh, DNAJC13 / RFU, GNAQ / Fold change vs veh, GNAQ / RFU, CDK5R1 / Fold change vs veh, CDK5R1 / RFU, ZRANB3 / Fold change vs veh, ZRANB3 / RFU, CUL4A / Fold change vs veh, CUL4A / RFU, CCNY / Fold change vs veh, CCNY / RFU, UFL1 / Fold change vs veh, UFL1 / RFU, COG3 / Fold change vs veh, COG3 / RFU, DIAPH2 / Fold change vs veh, DIAPH2 / RFU, SKA2 / Fold change vs veh, SKA2 / RFU, AFF3 / Fold change vs veh, AFF3 / RFU, LMF1 / Fold change vs veh, LMF1 / RFU, IPO11 / Fold change vs veh, IPO11 / RFU, DFFB / Fold change vs veh, DFFB / RFU, FOXP1 / Fold change vs veh, FOXP1 / RFU, CARD8 / Fold change vs veh, CARD8 / RFU, STRN3 / Fold change vs veh, STRN3 / RFU, ADK / Fold change vs veh, ADK / RFU, RASSF2 / Fold change vs veh, RASSF2 / RFU, WIPF1 / Fold change vs veh, WIPF1 / RFU, LARP1B / Fold change vs veh, LARP1B / RFU, RASA1 / Fold change vs veh, RASA1 / RFU, RB1 / Fold change vs veh, RB1 / RFU, PPFIA1 / Fold change vs veh, PPFIA1 / RFU, MAT2A / Fold change vs veh, MAT2A / RFU, CCT5 / Fold change vs veh, CCT5 / RFU, WDR92 / Fold change vs veh, WDR92 / RFU, CUX1 / Fold change vs veh, CUX1 / RFU, TTC7A / Fold change vs veh, TTC7A / RFU, TMEM135 / Fold change vs veh, TMEM135 / RFU, DEPTOR / Fold change vs veh, DEPTOR / RFU, CPM / Fold change vs veh, CPM / RFU, DNAJB6 / Fold change vs veh, DNAJB6 / RFU, CACNA2D3 / Fold change vs veh, CACNA2D3 / RFU, DTX4 / Fold change vs veh, DTX4 / RFU, TFCP2 / Fold change vs veh, TFCP2 / RFU, GMCL1 /// GMCL1P1 / Fold change vs veh, GMCL1 /// GMCL1P1 / RFU, AEBP2 / Fold change vs veh, AEBP2 / RFU, SNHG1 /// SNORD22 /// SNORD25 /// SNORD26 /// SNORD27 /// SNORD28 /// SNORD29 /// SNORD31 / Fold change vs veh, SNHG1 /// SNORD22 /// SNORD25 /// SNORD26 /// SNORD27 /// SNORD28 /// SNORD29 /// SNORD31 / Fold change (Aza/veh), C12orf56 (ProbeSet 11735607_a_at) / Fold change (ACY-1035/veh), C12orf56 (ProbeSet 11735607_a_at) / Fold change (Aza/veh), FGFR1OP (ProbeSet 11751329_s_at) / Fold change (ACY-1035/veh), FGFR1OP (ProbeSet 11751329_s_at) / Fold change (Aza/veh), VPS36 (ProbeSet 11739960_a_at) / Fold change (ACY-1035/veh), VPS36 (ProbeSet 11739960_a_at) / RFU SYPL1 (11715823_x_at) / Fold change /veh SYPL1 (11715823_x_at) / RFU IGFBP7 (11715501_s_at) / Fold change /veh IGFBP7 (11715501_s_at) / RFU REEP3 (11722064_at) / Fold change /veh REEP3 (11722064_at) / RFU IGLL1 (11728026_x_at) / Fold change /veh IGLL1 (11728026_x_at): dose or concentration left out as unconfirmed. Particulars: MV-4-11 cells, 48 hours.

For `Nc1ncn([C@@H]2O[C@H](CO)[C@@H](O)[C@H]2O)c(=O)n1` [azacitidine], the “RFU LINC00158 (11744669_a_at)” value was 7.44 RFU.
